Key:
IM-9 tumor cells [1] = assay: IM-9 multiple myeloma xenograft, unstaged conditional survival model; set-up: species or system SCID mice; details: mouse, in vivo
Description: (§1) SCID mice were inoculated subcutaneously with IM-9 tumor cells (a human multiple myeloma cell line expressing both CD40 and CD20) in 50% […]™ at 5×10^6 cells per mouse. In unstaged models, treatment was initiated one day after tumor implantation. In staged models, treatment was initiated when tumor volume reached 150-200 mm^3. Tumor-bearing mice were injected with anti-CD40 mAb intraperitoneally once a week at the indicated doses. Data were analyzed using the log-rank test.

IM-9 tumor cells [2] = assay: IM-9 multiple myeloma xenograft, staged subcutaneous model; type: in vivo, SCID mice
Description: as §1, with “Tumor-bearing mice were injected with anti-CD40 mAb intraperitoneally once a week at the indicated doses.” left out

Namalwa tumors = assay: Staged human NHL Namalwa xenograft model; type: in vivo, T cell-deficient nude mice; details: CHIR-12.12 1 mg/kg ip once a week for 4 weeks; IL-2 0.5 mg/kg sc daily for 8 days; N=10 mice/group
Text: Therefore, the component of these mAbs' anti-tumor activity based on blocking the tumor proliferation/survival signal is not expected to contribute to anti-tumore efficacy in these models.
To ensure consistent tumor growth, T cell-deficient nude mice were whole-body irradiated at 3 Gy to further suppress the immune system one day before tumor inoculation. Tumor cells were inoculated subcutaneously in the right flank at 5×10^6 cells per mouse. Treatment was initiated when tumor volume reached about 100-200 mm^3 (about 7 days after tumor inoculation). […] Tumor volumes were recorded twice a week. Data were analyzed using ANOVA.

Compound: CC(C)C[C@H](NC(=O)[C@H](Cc1ccccc1)NC(=O)c1cnccn1)B(O)O [bortezomib]
- outcome of treated group (IM-9 tumor cells [1]): euthanized between day 18 and day 26
- tumor growth inhibition (IM-9 tumor cells [2]; 0.5 mg/kg twice a week): did not inhibit tumor growth
- tumor growth inhibition (IM-9 tumor cells [2]; MTD 1 mg/kg twice a week): 30%

Compound: IL-2: IL-2 used in the xenograft example; b966 says des-alanyl-1, serine-125 human IL-2 is used in the examples
- growth of Namalwa tumors, single agent (Namalwa tumors): inhibited the growth of Namalwa tumors

Source: patent publication US8277810B2, “Antagonist anti-CD40 antibodies” (Novartis Vaccines & Diagnostics, Inc., priority 2003, dated 2012)
